Our source for the IC50 and EC50 values is US20130109682A1, “CYCLIC ETHER COMPOUNDS USEFUL AS KINASE INHIBITORS” (NOVARTIS AG, priority 2010, published 2013).

Like-named read-outs stand apart in the source and are kept apart here.

Assay [1] addresses GSK3β (Homo sapiens, UniProt P49841). The assay can be described thus: GSK3β ATP depletion assay. The format is biochemical. The following applies: read-out: GSK3b IC50. The method in brief: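 Human GSK3β (5 nM) preincubated 15 min with 10 μM biotinylated phospho-CREB peptide in pH 7.5 Tris buffer (15 mM MgCl2, 1 mM DTT, 0.1% BSA, 2.5% DMSO). Reaction started with 2 μM ATP and run to about 50% ATP depletion. Remaining ATP measured by KinaseGlo luminescence.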

Assay [2] has as its target T1, PIM2 (Homo sapiens, UniProt Q9P1W9). As to the kind of experiment: Pim 2 AlphaScreen assay (high ATP). The format is biochemical. The settings on record: read-out: Pim2 IC50. How it is done: Pim1, Pim2, Pim3 AlphaScreen Assay Pim 1, Pim 2 & Pim 3 AlphaScreen assays using high ATP (11-125×ATP Km) were used to determine the biochemical activity of the inhibitors. The activity of Pim 1, Pim 2, & Pim 3 is measured using a homogeneous bead based system quantifying the amount of phosphorylated peptide substrate resulting from kinase-catalyzed phosphoryl transfer to a peptide substrate. Compounds to be tested are dissolved in 100% DMSO and directly distributed to a white 384-well plate at […] per well. To start the reaction, 5 μl of 100 nM Bad peptide (Biotin-AGAGRSRHSSYPAGT —OH) and ATP (concentrations described below) in assay buffer (50 mM Hepes, pH=7.5, 5 mM MgCl2, 0.05% BSA, 0.01% Tween-20, 1 mM DTT) is added to each well. This is followed by the addition of 5 μl/well of Pim 1, Pim 2 or Pim 3 kinase in assay buffer (concentrations described below). Final assay concentrations (described below) are in 2.5% DMSO. The reactions are performed for ˜2 hours, then stopped by the addition of 10 μl of 0.75 μg/ml anti-phospho Ser/Thr antibody (Cell Signaling), 10 μg/ml Protein A AlphaScreen beads (Perkin Elmer), and 10 μg/ml streptavidin coated AlphaScreen beads in stop/detection buffer (50 mM EDTA, 95 mM Tris, pH=7.5, 0.01% Tween-20). The stopped reactions are incubated overnight in the dark. The phosphorylated peptide is detected via an […] initiated chemiluminescence/fluorescence cascade using the Envision plate reader (Perkin Elmer).
IC50, the half maximal inhibitory concentration, represents the concentration of a test compound that is required for 50% inhibition of its target in vitro under the described assay conditions.
Background: Alpha assays give light when donor and acceptor beads are brought close together.

Assay [3] addresses PIM1 (Homo sapiens, UniProt P11309). The assay can be described thus: KinaseGlo Pim1 ATP depletion assay. The class given is biochemical. The method in brief: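 2.5 nM PIM1 preincubated 15 min with compound and 40 μM BAD peptide in 50 mM HEPES pH 7.5, 5 mM MgCl2, 1 mM DTT, 0.05% BSA, 2.5% DMSO. The reaction was started with 20 μM ATP (final) and run to about 50% ATP depletion. Remaining ATP read by KinaseGlo Plus luminescence to give IC50.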
(Kinase-Glo reads ATP consumption through a luciferase reaction.)

The target in assay [4] is T1, PIM2. As to the kind of experiment: KinaseGlo Pim2 ATP depletion assay. The class given is biochemical. The method in brief: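 Luminescent ATP-depletion read-out of PIM2 phosphorylating BAD peptide (RSRHSSYPAGT-OH). Final conditions: 5 nM PIM2, 4 μM ATP, 10 μM peptide, 2.5% DMSO in 50 mM HEPES pH 7.5, 5 mM MgCl2, 1 mM DTT, 0.05% BSA. Enzyme–peptide preincubated 15 min with compound; reaction run to ~50% ATP depletion.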

For assay [5], the target named is PIM3 (Homo sapiens, UniProt Q86V86). The assay can be described thus: KinaseGlo Pim3 ATP depletion assay. The format is biochemical. The method in brief: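 Kinase was preincubated 15 min with BAD peptide in HEPES pH 7.5/MgCl2/DTT/BSA before ATP was added. Final concentrations were 40 μM ATP, 100 μM BAD peptide and 2.5% DMSO, with 5 nM enzyme. The reaction ran to ~50% ATP depletion and remaining ATP was read by KinaseGlo Plus luminescence.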

In assay [6] the test system is KMS11 (human myeloma cell line). The assay can be described thus: Cell proliferation assay (CellTiter-Glo), KMS11. The settings on record: Homo sapiens, KMS-11; KMS11-Luc cells. The class given is cell-based. The method in brief: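 KMS11 cells in IMDM with 10% FBS and sodium pyruvate, seeded at 2000 cells/well on assay day. Compound added at 2× to equal volume of cells, incubated 3 days at 37° C. Viability read by CellTiter-Glo luminescence; EC50 derived.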
For orientation: ATP-based viability assays read luminescence as a measure of living cells.

Chain of GSK3β (P49841 whole entry, species assumed): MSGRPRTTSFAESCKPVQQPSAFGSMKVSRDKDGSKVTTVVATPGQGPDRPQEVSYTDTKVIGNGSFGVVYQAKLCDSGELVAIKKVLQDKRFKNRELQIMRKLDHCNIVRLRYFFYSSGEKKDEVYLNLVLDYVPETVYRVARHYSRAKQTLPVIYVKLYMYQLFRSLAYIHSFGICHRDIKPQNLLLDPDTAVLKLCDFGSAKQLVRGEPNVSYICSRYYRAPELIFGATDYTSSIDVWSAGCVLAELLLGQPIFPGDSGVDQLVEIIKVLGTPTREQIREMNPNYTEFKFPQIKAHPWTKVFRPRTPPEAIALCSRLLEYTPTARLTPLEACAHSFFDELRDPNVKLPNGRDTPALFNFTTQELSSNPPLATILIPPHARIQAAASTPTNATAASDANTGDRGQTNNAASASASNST
Chain of PIM1 (P11309 whole entry): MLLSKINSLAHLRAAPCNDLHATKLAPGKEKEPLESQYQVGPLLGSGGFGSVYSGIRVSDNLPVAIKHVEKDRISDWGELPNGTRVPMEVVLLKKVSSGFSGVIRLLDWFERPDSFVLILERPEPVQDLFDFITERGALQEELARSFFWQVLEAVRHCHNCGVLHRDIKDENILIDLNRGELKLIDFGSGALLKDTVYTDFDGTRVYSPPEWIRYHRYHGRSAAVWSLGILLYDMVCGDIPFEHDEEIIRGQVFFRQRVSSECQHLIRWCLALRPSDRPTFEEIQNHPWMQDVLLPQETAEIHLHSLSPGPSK
T1 sequence (Q9P1W9 whole entry): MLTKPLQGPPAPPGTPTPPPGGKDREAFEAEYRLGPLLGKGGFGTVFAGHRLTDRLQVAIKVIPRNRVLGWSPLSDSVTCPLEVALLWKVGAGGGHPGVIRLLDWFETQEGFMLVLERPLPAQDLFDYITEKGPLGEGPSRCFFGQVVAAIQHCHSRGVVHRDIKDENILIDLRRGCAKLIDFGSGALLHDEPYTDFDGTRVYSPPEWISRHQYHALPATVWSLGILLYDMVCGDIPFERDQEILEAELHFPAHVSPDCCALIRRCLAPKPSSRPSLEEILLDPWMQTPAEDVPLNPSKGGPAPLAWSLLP

For the compound `CC[C@H]1OC(c2ccncc2NC(=O)c2ccc(F)c(-c3c(F)cc(S(C)(=O)=O)cc3F)n2)C[C@@H](N)[C@]1(C)O` (stereo in doubt) [Example 283, N-(4-((2S,4R,5S,6R)-4-amino-6-ethyl-5-hydroxy-5-methyltetrahydro-2H-pyran-2-yl)pyridin-3-yl)-6-(2,6-difluoro-4-(methylsulfonyl)phenyl)-5-fluoropicolinamide], the IC50 came out at 12.5 µM in assay [1] (ATP depletion assay) and 87.4 nM in assay [2].

Take `CC[C@]1(O)[C@H](N)CC(c2ccncc2NC(=O)c2ccc(F)c(-c3c(F)cc(S(C)(=O)=O)cc3F)n2)O[C@@H]1C` (stereo in doubt) [Example 284, N-(4-((2S,4R,5S,6R)-4-amino-5-ethyl-5-hydroxy-6-methyltetrahydro-2H-pyran-2-yl)pyridin-3-yl)-6-(2,6-difluoro-4-(methylsulfonyl)phenyl)-5-fluoropicolinamide]: the IC50 in assay [1] (ATP depletion assay) amounted to 0.619 µM; in assay [2] it was 59.1 nM.

`CC(=O)Nc1ccc(F)c(-c2nc(C(=O)Nc3cnccc3C3C[C@@H](N)[C@H](O)[C@@H](C(C)C)O3)ccc2F)c1F` (stereo in doubt) [Example 307, 6-(3-acetamido-2,6-difluorophenyl)-N-(4-((2S,4R,5S,6R)-4-amino-5-hydroxy-6-isopropyltetrahydro-2H-pyran-2-yl)pyridin-3-yl)-5-fluoropicolinamide]: the IC50 in assay [1] (ATP depletion assay) stood at 3.42 µM; in assay [2] it was 50.1 nM.

Regarding `CC[C@@H]1O[C@H](c2ccncc2NC(=O)c2ccc(F)c(-c3c(F)cccc3F)n2)C[C@H](O)[C@@]1(C)O` [Example 163, 6-(2,6-difluorophenyl)-N-(4-((2S,4S,5R,6S)-6-ethyl-4,5-dihydroxy-5-methyltetrahydro-2H-pyran-2-yl)pyridin-3-yl)-5-fluoropicolinamide], the IC50 in assay [2] is 7490 nM.

Turning to `O=C(Nc1cnccc1[C@H]1C[C@@H](O)[C@H](O)[C@@H](C2CC2)O1)c1ccc(F)c(-c2c(F)cccc2F)n1` [Example 211, N-(4-((2R,4R,5S,6R)-6-cyclopropyl-4,5-dihydroxytetrahydro-2H-pyran-2-yl)pyridin-3-yl)-6-(2,6-difluorophenyl)-5-fluoropicolinamide], the IC50 in assay [3] stood at 1 nM; in assay [4], 3.1 nM; in assay [5], 2.2 nM; in assay [1] it was 0.636 µM. This compound also had an EC50 in assay [6] of 2700 nM.

With `N[C@H]1C[C@@H](c2ccncc2NC(=O)c2ccc(F)c(-c3c(F)cccc3F)n2)O[C@H]2CCC[C@]21O` [Example 212, N-(4-((2S,4S,4aR,7aS)-4-amino-4a-hydroxyoctahydrocyclopenta[b]pyran-2-yl)pyridin-3-yl)-6-(2,6-difluorophenyl)-5-fluoropicolinamide], the IC50 came out at 17.9 nM in assay [3], 508 nM in assay [4], 155 nM in assay [5] and 11.5 µM in assay [1]. A half-maximal effect in assay [6] (EC50) was put at 3360 nM.

Consider `Nc1cnc(-c2c(F)cccc2F)nc1C(=O)Nc1cnccc1[C@@H]1C[C@H](N)[C@]2(O)CCC[C@@H]2O1` [Example 214, 5-amino-N-(4-((2S,4S,4aR,7aS)-4-amino-4a-hydroxyoctahydrocyclopenta[b]pyran-2-yl)pyridin-3-yl)-2-(2,6-difluorophenyl)pyrimidine-4-carboxamide], for which the IC50 was 258 nM in assay [3], 2250 nM in assay [4], 373 nM in assay [5] and more than 25 µM in assay [1]. In addition, the EC50 in assay [6] was more than 10000 nM.

Take `Nc1ccc(-c2c(F)cccc2F)nc1C(=O)Nc1cnccc1[C@H]1C[C@@H](N)[C@@]2(O)CCC[C@H]2O1` [Example 215, 3-amino-N-(4-((2R,4R,4aS,7aR)-4-amino-4a-hydroxyoctahydrocyclopenta[b]pyran-2-yl)pyridin-3-yl)-6-(2,6-difluorophenyl)picolinamide]: the IC50 in assay [3] stood at 0.6 nM; in assay [4], 2.6 nM; in assay [5], 4 nM; in assay [1] it was 0.252 µM. In assay [6], a half-maximal response (EC50) required 800 nM.

Take `CC(C)(C)[C@H]1O[C@@H](c2ccncc2NC(=O)c2ccc(F)c(-c3c(F)cccc3F)n2)C[C@H](N)[C@@H]1O` [Example 278, N-(4-((2R,4S,5S,6R)-4-amino-6-(tert-butyl)-5-hydroxytetrahydro-2H-pyran-2-yl)pyridin-3-yl)-6-(2,6-difluorophenyl)-5-fluoropicolinamide]: the results for the IC50 in assay [1] (ATP depletion assay) and in assay [2] were 9.7 µM and 70.7 nM, respectively.

For the compound `CC(C)(C)[C@@H]1O[C@H](c2ccncc2NC(=O)c2ccc(F)c(-c3c(F)cccc3F)n2)C[C@@H](N)[C@H]1O` [Example 279, N-(4-((2S,4R,5R,6S)-4-amino-6-(tert-butyl)-5-hydroxytetrahydro-2H-pyran-2-yl)pyridin-3-yl)-6-(2,6-difluorophenyl)-5-fluoropicolinamide], the IC50 was 0.548 µM in assay [1] (ATP depletion assay) and 27.1 nM in assay [2].

For the compound `C[C@]1(O)[C@@H](N)C[C@H](c2ccncc2NC(=O)c2ccc(F)c(-c3c(F)cccc3F)n2)OC12CC2` [Example 287, N-(4-((5R,7S,8S)-7-amino-8-hydroxy-8-methyl-4-oxaspiro[2.5]octan-5-yl)pyridin-3-yl)-6-(2,6-difluorophenyl)-5-fluoropicolinamide], the IC50 in assay [1] (ATP depletion assay) came to 1.5 µM; in assay [2], 388 nM.

In the case of `C[C@@]1(O)[C@H](N)C[C@@H](c2ccncc2NC(=O)c2ccc(F)c(-c3c(F)cccc3F)n2)OC12CC2` [Example 288, N-(4-((5S,7R,8R)-7-amino-8-hydroxy-8-methyl-4-oxaspiro[2.5]octan-5-yl)pyridin-3-yl)-6-(2,6-difluorophenyl)-5-fluoropicolinamide], the figures for the IC50 in assay [1] (ATP depletion assay) and in assay [2] were 16.3 µM and 272 nM, respectively.

Consider `CC(C)[C@H]1O[C@@H](c2ccncc2NC(=O)c2ccnc(-c3c(F)cccc3F)n2)C[C@@H](N)[C@@H]1O` [Example 293, N-(4-((2R,4R,5S,6R)-4-amino-5-hydroxy-6-isopropyltetrahydro-2H-pyran-2-yl)pyridin-3-yl)-2-(2,6-difluorophenyl)pyrimidine-4-carboxamide], for which the IC50 in assay [1] (ATP depletion assay) was determined as 0.95 µM; in assay [2], 154 nM.

For `CC(C)[C@H]1O[C@@H](c2ccncc2NC(=O)c2ccc(F)c(-c3cnc4[nH]ccc4c3)n2)C[C@@H](N)[C@@H]1O` [Example 295, N-(4-((2R,4R,5S,6R)-4-amino-5-hydroxy-6-isopropyltetrahydro-2H-pyran-2-yl)pyridin-3-yl)-5-fluoro-6-(1H-pyrrolo[2,3-b]pyridin-5-yl)picolinamide], the half-maximal inhibitory concentration (IC50) in assay [1] (ATP depletion assay) was 4.3 µM; in assay [2], 345 nM.

For the compound `CC1(C)C[C@@H](N)C[C@H](c2ccncc2NC(=O)c2ccc(F)c(-c3c(F)cccc3F)n2)O1` [Example 298, N-(4-((2R,4S)-4-amino-6,6-dimethyltetrahydro-2H-pyran-2-yl)pyridin-3-yl)-6-(2,6-difluorophenyl)-5-fluoropicolinamide], the 50% inhibitory concentration (IC50) in assay [1] (ATP depletion assay) was determined as 4.94 µM; in assay [2] it was 234 nM.

For the compound `CC(C)[C@H]1C[C@@H](N)C[C@@H](c2ccncc2NC(=O)c2ccc(F)c(-c3c(F)cccc3F)n2)O1` [Example 301, N-(4-((2S,4R,6R)-4-amino-6-isopropyltetrahydro-2H-pyran-2-yl)pyridin-3-yl)-6-(2,6-difluorophenyl)-5-fluoropicolinamide], the figures for the IC50 in assay [1] (ATP depletion assay) and in assay [2] were 20.7 µM and 159 nM, respectively.

One may read the IC50 as the concentration that inhibits the measured activity by half. As usually defined, the EC50 is the concentration needed to bring the measured effect to its halfway point. Low values mean an effect from little substance, high ones a need for much substance.
